The values below come from US4229448A, “5-Substituted picolinic acid derivatives and an anti-hypertensive composition containing the same” (Meuji Seika Kaisha Ltd., priority 1978, dated 1980).

Data set [1] relates to spontaneously hypertensive rats. Kind of data set: Blood pressure changes, Direct Blood Pressure Measuring Method, oral administration (Table 1). The data set is classed as in vivo. As to conditions: Rattus norvegicus, read-out: Maximum Depression in Blood Pressure.
Protocol: Each of the compounds of the invention as indicated below was suspended in a 5% aqueous gum arabic solution and the suspension was administered orally (100 mg/kg) to groups consisting of three spontaneously hypertensive rats (18-23 week old; blood pressure before administration: 170-190 mmHg).
Data set [2] concerns male mice (ICR strain, 5 week old). Description: Acute toxicity (LD50), intraperitoneal (Table 1). The data set is classed as in vivo. As to conditions: observed 1 week after administration, 10080 min.
Data set [3] can be described thus: Oral LD50. As to conditions: in vivo.
Data set [4] relates to spontaneously hypertensive rats. Description: Blood pressure changes, Tail Cuff Method, oral administration (Table 2). The data set is classed as in vivo. As to conditions: Rattus norvegicus, 100 mg/kg orally, read-out: Maximum Depression in Blood Pressure. As for the experimental part:
Each of the compounds of the invention as indicated below was suspended in a 5% aqueous gum arabic solution and the suspension was administered orally to groups consisting of three spontaneously hypertensive rats (17-23 week old; blood pressure before administration: 170-190 mmHg).

Data set [5] can be described thus: Acute toxicity (LD50), intraperitoneal (Table 1). Type of data set: in vivo. As to conditions: mouse, in vivo, ip, male ICR mice, 5 week old, observed 1 week after administration.
For data set [6] the following is noted: prior art; cited from earlier work.
For data set [7] the following is noted: prior art; cited from earlier work. The source holds these as a separate data set.
A short description of data set [8]: Water solubility. Type of data set: physicochemical. As to conditions: suited for subcutaneous injection.
Where [9] appears, read: 100 mg/kg orally, spontaneously hypertensive rats, Direct Blood Pressure Measuring Method.

Counter-ions that a name gives are not always drawn.

Broadly, the LD50 is the dose at which mortality reaches 50%. Lower therefore signals greater toxicity. Regarding `O=C(O)c1ccc(Oc2ccc(Cl)cc2)cn1` [5-(p-Chlorophenoxy)picolinic Acid, 5-(p-chlorophenoxy)picolinic acid], the inhibition in vivo at 100 mg/kg in data set [1] (setting [9]) was determined as 28.3%. Further, the “Acute Toxicity (LD50)” value in data set [2] is 150 to 200 mg/kg. Besides, the LD50 in data set [3] lay in the range of 400 to 600 mg/kg.
Turning to `O=C(O)c1ccc(OCCCCC(F)(F)F)cn1` [5-(5,5,5-trifluoropentyloxy)picolinicacid], the inhibition in vivo at 100 mg/kg in data set [1] (setting [9]) came out at 28.7%.
For the compound `O=C(Oc1ccc2c(c1)CCC2)c1ccc(Oc2ccccc2Cl)cn1` [indanyl ester of 5-(o-chlorophenoxy)picolinic acid], in data set [4], the inhibition in vivo at 100 mg/kg was 29%.
As for `NC(=O)c1ccc(Oc2ccccc2Cl)cn1` [5-(o-Chlorophenoxy)picolinic Acid Amide], the inhibition in vivo at 100 mg/kg in data set [4] is 19.6%.
Consider `CCCCc1ccc(C(=O)O)nc1` [Fusaric Acid, 5-n-butylpicolinic acid, reference compound], for which, in data set [1], the inhibition in vivo at 100 mg/kg was found to be 15.8%. In data set [5], this compound registered a 50% lethal dose (LD50) at 168 h of 75 to 100 mg/kg. For the same compound, in data set [6], the “anti-hypertensive activity (in words)” value is recorded as “useful as an anti-hypertensive agent”. The “LD50 value (in words)” value in data set [7] is “low LD50 value”.
As to `CCCCOc1ccc(C(=O)O)nc1` [5-n-Butoxy-picolinic Acid, reference compound], the inhibition in vivo at 100 mg/kg in data set [1] (setting [9]) is 16.6%. The compound further showed a 50% lethal dose (LD50) at 168 h in data set [5] of 100 to 150 mg/kg.
`O=C(Oc1ccc2c(c1)CCC2)c1ccc(OCCCCCl)cn1` [5-indanyl ester of 5-(4-chlorobutoxy)picolinic acid]: the inhibition in vivo at 100 mg/kg in data set [4] was 26.3%. The LD50 in data set [3] was in the range of 1600 to 1800 mg/kg.
On to `O=C(O)c1ccc(Oc2ccc(C(F)(F)F)cc2)cn1` [5-(p-trifluoromethylphenoxy)picolinic acid], for which the inhibition in vivo at 100 mg/kg in data set [1] (setting [9]) came to 29.3%. For the same compound, the LD50 at 168 h in data set [5] is 200 to 250 mg/kg.
Regarding `O=C(O)c1ccc(Oc2ccccc2Cl)cn1` [5-(o-Chlorophenoxy)picolinic Acid, 5-(o-chlorophenoxy)picolinic acid], the inhibition in vivo at 100 mg/kg in data set [1] (setting [9]) amounted to 30.1%. Further, the LD50 at 168 h in data set [5] lay in the range of 150 to 200 mg/kg. Besides, the LD50 in data set [3] was in the range of 400 to 600 mg/kg.
With `O=C(O)c1ccc(Oc2ccc(C(F)(F)F)cc2C(F)(F)F)cn1` [5-(2,4-Ditrifluoromethylphenoxy)picolinic Acid], the inhibition in vivo at 100 mg/kg in data set [1] (setting [9]) was found to be 25.5%. Further, the 50% lethal dose (LD50) at 168 h in data set [5] is 200 to 250 mg/kg.
For `Cc1ccc(Oc2ccc(C(=O)O)nc2)c(C)c1` [5-(2,4-Dimethylphenoxy)picolinic Acid], in that order: 16.9% and 250 to 300 mg/kg.
`O=C(O)c1ccc(OCCCCCl)cn1` [Calcium Salt of 5-(4-Chlorobutoxy)picolinic Acid] [Calcium 5-(4-chlorobutoxy)picolinate]: the “Acute Toxicity (LD50)” value in data set [2] lay within 800 to 1000 mg/kg.
With `NC(=O)c1ccc(OCCCCCl)cn1` [5-(4-Chlorobutoxy)picolinic Acid Amide, 5-(4-chlorobutoxy)picolinic acid amide], the inhibition in vivo at 100 mg/kg in data set [4] was 21.5%. The LD50 in data set [3] fell in the range of 1500 to 1600 mg/kg.
As for `Cl.Cl.Nc1ccc(Oc2ccc(C(=O)O)nc2)cc1` [5-(p-aminophenoxy)picolinic acid dihydrochloride], the inhibition in vivo at 100 mg/kg in data set [1] (setting [9]) was 8.3%. For the same compound, in data set [5], the median lethal dose (LD50) at 168 h is 450 to 500 mg/kg.
Turning to `O=C(O)c1ccc(Oc2ccc(Br)cc2)cn1` [5-(p-Bromophenoxy)picolinic Acid, 5-(p-bromophenoxy)picolinic acid], in data set [1] (setting [9]), the inhibition in vivo at 100 mg/kg is 27.5%. Besides, the 50% lethal dose (LD50) at 168 h in data set [5] lay in the range of 150 to 200 mg/kg.
Consider `O=C(O)c1ccc(Oc2ccccc2C(F)(F)F)cn1` [5-(o-trifluoromethylphenoxy)picolinic acid], for which the inhibition in vivo at 100 mg/kg in data set [1] (setting [9]) is 27.6%. The compound further returned an LD50 at 168 h in data set [5] of 150 to 200 mg/kg. Moreover, in data set [3], the LD50 lay in the range of 400 to 600 mg/kg.
For the compound `CC(OC(=O)c1ccc(Oc2ccc(Cl)cc2)cn1)OC(=O)C(C)(C)C` (stereo not drawn) [α-pivaloyloxyethyl ester of 5-(p-chlorophenoxy)picolinic acid], the inhibition in vivo at 100 mg/kg in data set [4] was determined as 21.8%. Also, the median lethal dose (LD50) in data set [3] lay within 900 to 1000 mg/kg.
Consider `CC(=O)c1ccc(Oc2ccc(C(=O)O)nc2)cc1` [5-(p-Acetylphenoxy)picolinic Acid], for which the inhibition in vivo at 100 mg/kg in data set [1] (setting [9]) came out at 17.3%. In data set [5], this compound gave an LD50 at 168 h of 400 to 500 mg/kg.
On to `CCOC(=O)c1ccc(Oc2ccc(Cl)cc2)cn1` [ethyl ester of 5-(p-chlorophenoxy)picolinic acid], for which, in data set [4], the inhibition in vivo at 100 mg/kg worked out at 23.3%.
On to `O=C(O)c1ccc(Oc2cccc(C(F)(F)F)c2)cn1` [5-(m-trifluoromethylphenoxy)picolinic acid], for which the inhibition in vivo at 100 mg/kg in data set [1] (setting [9]) was determined as 20.8%. The compound also showed an LD50 at 168 h in data set [5] of 500 to 600 mg/kg.
Regarding `O=C(O)c1ccc(OCCCCCl)cn1` [5-(4-Chlorobutoxy)picolinic Acid, 5-(4-chlorobutoxy)picolinic acid], in data set [1] (setting [9]), the inhibition in vivo at 100 mg/kg worked out at 23%. The “Acute Toxicity (LD50)” value in data set [2] fell in the range of 150 to 200 mg/kg. In data set [3], this compound gave an LD50 of 900 mg/kg.
Turning to `COc1ccc(Oc2ccc(C(=O)O)nc2)cc1` [5-(p-Methoxyphenoxy)picolinic Acid, 5-(p-methoxyphenoxy)picolinic acid], the inhibition in vivo at 100 mg/kg in data set [1] (setting [9]) turned out to be 14.2%. In addition, the LD50 at 168 h in data set [5] lay in the range of 500 to 600 mg/kg.
With `O=C(O)c1ccc(OCCCCl)cn1` [5-(3-Chloropropoxy)picolinic Acid, 5-(3-chloropropoxy)picolinic acid], in data set [1] (setting [9]), the inhibition in vivo at 100 mg/kg came to 18.2%. The 50% lethal dose (LD50) at 168 h in data set [5] fell in the range of 150 to 200 mg/kg.
For `COc1ccc(Oc2ccc(C(=O)O)nc2)c(OC)c1` [5-(2,4-Dimethoxyphenoxy)picolinic Acid], in that order: 19.2% and 400 to 450 mg/kg.
In the case of `O=C(O)c1ccc(Oc2ccc(Cl)cc2Cl)cn1` [5-(2,4-Dichlorophenoxy)picolinic Acid], in data set [1] (setting [9]), the inhibition in vivo at 100 mg/kg was found to be 24.6%. The compound also returned a median lethal dose (LD50) at 168 h in data set [5] of 150 to 200 mg/kg.
Consider `O=C(O)c1ccc(Oc2ccc(Cl)cc2)cn1` [Calcium Salt of 5-(p-Chlorophenoxy)picolinic Acid], for which the “Acute Toxicity (LD50)” value in data set [2] is 350 to 400 mg/kg.
Regarding `CN(C)CCOC(=O)c1ccc(OCCCCCl)cn1` [dimethylaminoethyl ester of 5-(4-chlorobutoxy)picolinic acid hydrochloride], the water solubility entry in data set [8] is on record as “increased water solubility”.
For the compound `O=C(O)c1ccc(Oc2cccc(Cl)c2)cn1` [5-(m-Chlorophenoxy)picolinic Acid, 5-(m-chlorophenoxy)picolinic acid], the inhibition in vivo at 100 mg/kg in data set [1] (setting [9]) stood at 16.7%. Further, the LD50 at 168 h in data set [5] lay in the range of 300 to 400 mg/kg.
`Cc1ccc(Oc2ccc(C(=O)O)nc2)cc1` [5-(p-Methylphenoxy)picolinic Acid, 5-(p-methylphenoxy)picolinic acid]: the inhibition in vivo at 100 mg/kg in data set [1] (setting [9]) turned out to be 17%. Also, in data set [5], the 50% lethal dose (LD50) at 168 h was 200 to 300 mg/kg.
With `O=C(O)c1ccc(OCCCCC(F)(F)F)cn1` [Calcium Salt of 5-(5,5,5-Trifluoropentyloxy)picolinic Acid] [Calcium 5-(5,5,5-trifluoropentyloxy)picolinate], the “Acute Toxicity (LD50)” value in data set [2] fell in the range of 800 to 900 mg/kg.
With `O=C(Oc1ccc2c(c1)CCC2)c1ccc(Oc2ccc(Cl)cc2)cn1` [indanyl ester of 5-(p-chlorophenoxy)picolinic acid], the inhibition in vivo at 100 mg/kg in data set [4] amounted to 27.5%. Besides, the LD50 in data set [3] lay in the range of 700 to 800 mg/kg.
Consider `O=C(Oc1ccc2c(c1)CCC2)c1ccc(Oc2ccccc2C(F)(F)F)cn1` [Indanyl Ester of 5-(o-Trifluoromethylphenoxy)picolinic Acid], for which, in data set [4], the inhibition in vivo at 100 mg/kg amounted to 26.3%.
`O=C(O)c1ccc(OCCCCC(F)(F)F)cn1` [5-(5,5,5-Trifluoropentyloxy)picolinic Acid] [5-(5,5,5-trifluoropentyloxy)picolinicacid]: the “Acute Toxicity (LD50)” value in data set [2] was 150 to 200 mg/kg.
On to `O=C(O)c1ccc(Oc2ccc([N+](=O)[O-])cc2)cn1` [5-(p-Nitrophenoxy)picolinic Acid, 5-(p-nitrophenoxy)picolinic acid], for which the inhibition in vivo at 100 mg/kg in data set [1] (setting [9]) stood at 15.1%. This compound also had an LD50 at 168 h in data set [5] of 500 to 600 mg/kg.
`NC(=O)c1ccc(Oc2ccccc2C(F)(F)F)cn1` [5-(o-trifluoromethylphenoxy)picolinic acid amide]: in data set [4], the inhibition in vivo at 100 mg/kg was determined as 20.7%. Moreover, the LD50 in data set [3] is 950 mg/kg.
In the case of `NC(=O)c1ccc(Oc2ccc(Cl)cc2)cn1` [5-(p-Chlorophenoxy)picolinic Acid Amide, 5-(p-chlorophenoxy)picolinic acid amide], in data set [4], the inhibition in vivo at 100 mg/kg worked out at 23.7%.
As to `O=C(O)c1ccc(Oc2c(Cl)cccc2Cl)cn1` [5-(2,6-Dichlorophenoxy)picolinic Acid], the inhibition in vivo at 100 mg/kg in data set [1] (setting [9]) amounted to 23.7%. Moreover, the LD50 at 168 h in data set [5] was 150 to 200 mg/kg.
